Results reported in PubChem BioAssay AID2060610 (Molecular Pharmacology Branch, DTP, NCI, 2025).
Values joined by “and” are separate entries in the source; they are usually repeats but may differ in a detail not shown here. Identical values can stand only once.

Test system: 616215-338-R-J1-PDC complex spheroids, viability % test/control
Assay: Anticancer human tumor 616215-338-R-J1-PDC patient-derived colon adenocarcinoma cell line growth inhibition [CLK]
Conditions: for viability, T/C: stronger effect = lower value
In short: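 Patient-derived tumor cells grown as complex spheroids with HUVEC endothelial cells and mesenchymal stem cells, treated with drug combinations. Concentrations descend in half-log steps from near clinical Cmax, or from 10 microM if Cmax unknown.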

[1] = curve of first compound, second compound 0.0316 µM
[2] = curve of first compound, second compound 0.1 µM
[3] = curve of first compound, second compound 0.316 µM
[4] = curve of first compound, second compound 1 µM
[5] = curve of first compound, second compound 3.16 µM
[6] = curve of first compound, second compound 10 µM
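Note: spheroids exposed to agents for 7 days.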
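Throughout, for viability, T/C: 100% = DMSO vehicle wells.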

CC1(C)CCC(CN2CCN(c3ccc(C(=O)NS(=O)(=O)c4ccc(NCC5CCOCC5)c([N+](=O)[O-])c4)c(Oc4cnc5[nH]ccc5c4)c3)CC2)=C(c2ccc(Cl)cc2)C1 + CN1CCN(c2cc(C(=O)Nc3cc4cc(-c5cnn(C)c5)ccc4cn3)ccn2)CC1
IC50 [1]: 5820 nM | IC50 [2]: 4310 nM | IC50 [3]: < 31.6 nM | IC50 [4]: < 31.6 nM | IC50 [5]: < 31.6 nM | IC50 [6]: < 31.6 nM | viability, T/C (second compound 0.0316 µM, first compound 0.0316 µM): 105% | viability, T/C (second compound 0.0316 µM, first compound 0.1 µM): 106% | viability, T/C (second compound 0.0316 µM, first compound 0.316 µM): 102% | viability, T/C (second compound 0.0316 µM, first compound 1 µM): 103% | viability, T/C (second compound 0.0316 µM, first compound 3.16 µM): 106% | viability, T/C (second compound 0.0316 µM, first compound 10 µM): 1.63% | viability, T/C (second compound 0.1 µM, first compound 0.0316 µM): 109% | viability, T/C (second compound 0.1 µM, first compound 0.1 µM): 118% | viability, T/C (second compound 0.1 µM, first compound 0.316 µM): 110% | viability, T/C (second compound 0.1 µM, first compound 1 µM): 129% | viability, T/C (second compound 0.1 µM, first compound 3.16 µM): 67.9% | viability, T/C (second compound 0.1 µM, first compound 10 µM): 1.54% | viability, T/C (second compound 0.316 µM, first compound 0.0316 µM): 35.4% | viability, T/C (second compound 0.316 µM, first compound 0.1 µM): 31.4% | viability, T/C (second compound 0.316 µM, first compound 0.316 µM): 32% | viability, T/C (second compound 0.316 µM, first compound 1 µM): 26.9% | viability, T/C (second compound 0.316 µM, first compound 3.16 µM): 12.7% | viability, T/C (second compound 0.316 µM, first compound 10 µM): 1.79% | viability, T/C (second compound 1 µM, first compound 0.0316 µM): 0.16% | viability, T/C (second compound 1 µM, first compound 0.1 µM): 0.22% | viability, T/C (second compound 1 µM, first compound 0.316 µM): 0.2% | viability, T/C (second compound 1 µM, first compound 1 µM): 0.16% | viability, T/C (second compound 1 µM, first compound 3.16 µM): 2.45% | viability, T/C (second compound 1 µM, first compound 10 µM): 0.3% | viability, T/C (second compound 3.16 µM, first compound 0.0316 µM): 0.12% | viability, T/C (second compound 3.16 µM, first compound 0.1 µM): 0.14% | viability, T/C (second compound 3.16 µM, first compound 0.316 µM): 0.15% | viability, T/C (second compound 3.16 µM, first compound 1 µM): 0.12% | viability, T/C (second compound 3.16 µM, first compound 3.16 µM): 0.11% | viability, T/C (second compound 3.16 µM, first compound 10 µM): 0.62% | viability, T/C (second compound 10 µM, first compound 0.0316 µM): 0.13% | viability, T/C (second compound 10 µM, first compound 0.1 µM): 0.14% | viability, T/C (second compound 10 µM, first compound 0.316 µM): 0.16% | viability, T/C (second compound 10 µM, first compound 1 µM): 0.15% | viability, T/C (second compound 10 µM, first compound 3.16 µM): 3.51% | viability, T/C (second compound 10 µM, first compound 10 µM): 0.2%

C=CC(=O)N1CCN(c2nc(=O)n(-c3c(C)ccnc3C(C)C)c3nc(-c4c(O)cccc4F)c(F)cc23)C(C)C1 (stereo unspecified)
viability, T/C (compound 0.0316 µM): 95.4% and 104% | viability, T/C (compound 0.1 µM): 101% and 108% | viability, T/C (compound 0.316 µM): 106% and 119% | viability, T/C (compound 1 µM): 112% and 98.6% | viability, T/C (compound 3.16 µM): 108% and 110% | viability, T/C (compound 10 µM): 106% and 113% | IC50 (curve of compound): > 10000 nM

C=CC(=O)Nc1cc(Nc2nccc(-c3cn(C)c4ccccc34)n2)c(OC)cc1N(C)CCN(C)C + CNC(=O)c1ccc(Nc2nc(OC3CCCC3)c3c(-c4ccc5nc(C)oc5c4)c[nH]c3n2)c(OC)c1
IC50 [1]: > 300 nM | IC50 [2]: 2.07 nM | IC50 [3]: < 0.949 nM | IC50 [4]: < 0.949 nM | IC50 [5]: < 0.949 nM | IC50 [6]: < 0.949 nM | viability, T/C (second compound 0.0316 µM, first compound 0.000949 µM): 94.3% | viability, T/C (second compound 0.0316 µM, first compound 0.003 µM): 87.8% | viability, T/C (second compound 0.0316 µM, first compound 0.00949 µM): 90.3% | viability, T/C (second compound 0.0316 µM, first compound 0.03 µM): 89.4% | viability, T/C (second compound 0.0316 µM, first compound 0.0949 µM): 98.7% | viability, T/C (second compound 0.0316 µM, first compound 0.3 µM): 95.8% | viability, T/C (second compound 0.1 µM, first compound 0.000949 µM): 52.1% | viability, T/C (second compound 0.1 µM, first compound 0.003 µM): 51.2% | viability, T/C (second compound 0.1 µM, first compound 0.00949 µM): 42.3% | viability, T/C (second compound 0.1 µM, first compound 0.03 µM): 36.6% | viability, T/C (second compound 0.1 µM, first compound 0.0949 µM): 40.9% | viability, T/C (second compound 0.1 µM, first compound 0.3 µM): 28.5% | viability, T/C (second compound 0.316 µM, first compound 0.000949 µM): 43.9% | viability, T/C (second compound 0.316 µM, first compound 0.003 µM): 37.9% | viability, T/C (second compound 0.316 µM, first compound 0.00949 µM): 39.2% | viability, T/C (second compound 0.316 µM, first compound 0.03 µM): 36.7% | viability, T/C (second compound 0.316 µM, first compound 0.0949 µM): 31.6% | viability, T/C (second compound 0.316 µM, first compound 0.3 µM): 25.8% | viability, T/C (second compound 1 µM, first compound 0.000949 µM): 43.6% | viability, T/C (second compound 1 µM, first compound 0.003 µM): 41.9% | viability, T/C (second compound 1 µM, first compound 0.00949 µM): 39.7% | viability, T/C (second compound 1 µM, first compound 0.03 µM): 39% | viability, T/C (second compound 1 µM, first compound 0.0949 µM): 31.8% | viability, T/C (second compound 1 µM, first compound 0.3 µM): 24.4% | viability, T/C (second compound 3.16 µM, first compound 0.000949 µM): 39.3% | viability, T/C (second compound 3.16 µM, first compound 0.003 µM): 42.8% | viability, T/C (second compound 3.16 µM, first compound 0.00949 µM): 41% | viability, T/C (second compound 3.16 µM, first compound 0.03 µM): 34.3% | viability, T/C (second compound 3.16 µM, first compound 0.0949 µM): 28% | viability, T/C (second compound 3.16 µM, first compound 0.3 µM): 20.1% | viability, T/C (second compound 10 µM, first compound 0.000949 µM): 40.1% | viability, T/C (second compound 10 µM, first compound 0.003 µM): 40.7% | viability, T/C (second compound 10 µM, first compound 0.00949 µM): 33.8% | viability, T/C (second compound 10 µM, first compound 0.03 µM): 28.8% | viability, T/C (second compound 10 µM, first compound 0.0949 µM): 25.8% | viability, T/C (second compound 10 µM, first compound 0.3 µM): 22.7%
